Laboratory results taken from patent US12624027B2, “Salts and polymorphic forms of 6-chloro-7-(4-(4-chlorobenzyl)piperazin-1-yl)-2-(1,3-dimethyl-1H-pyrazol-4-yl)-3H-imidazo[4,5-b]pyridine” (ELLIPSES PHARMA LTD, priority 2020, dated 2026).

What was measured:
[1] = Thermodynamic solubility assessment in biological media (FaSSIF, FeSSIF, FaSSGF), HPLC of mother liquors; format: physicochemical; conditions: listed as Compound A free base
Protocol: The thermodynamic solubility of Compound A free base, Compound A fumarate Form 1 and Compound A hemi-fumarate Form 3 was assessed in 3 biological media: Fasted State Simulated Intestinal Fluid (FaSSIF); Fed State Simulated Intestinal Fluid (FeSSIF) and Fasted State Simulated Gastric Fluid (FaSSGF).
The following procedure was carried out. Approximately 10 mg of material was weighed into 3×1.5 mL glass vials. 0.02 mL aliquots of appropriate buffer were added to each vial until a final concentration of 10 mg/mL was obtained. The samples were then filtered via centrifugation and the mother liquors analyzed by HPLC.

cytochrome P450 = conditions: cited from earlier work
Aurora A = target: T1, Aurora A (Homo sapiens, UniProt O14965); conditions: cited from earlier work
T1 sequence (O14965 1-403): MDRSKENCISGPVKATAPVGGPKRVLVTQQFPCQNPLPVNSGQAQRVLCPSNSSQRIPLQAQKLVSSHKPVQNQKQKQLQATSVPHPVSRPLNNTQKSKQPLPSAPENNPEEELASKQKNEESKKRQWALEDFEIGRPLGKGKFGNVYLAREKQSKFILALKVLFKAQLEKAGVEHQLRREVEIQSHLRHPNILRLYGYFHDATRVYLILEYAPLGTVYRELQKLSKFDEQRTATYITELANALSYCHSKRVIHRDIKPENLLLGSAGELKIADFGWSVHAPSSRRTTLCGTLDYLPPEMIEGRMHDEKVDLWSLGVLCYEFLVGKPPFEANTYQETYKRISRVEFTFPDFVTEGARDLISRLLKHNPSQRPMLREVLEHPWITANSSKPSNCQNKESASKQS

hERG = hERG (Homo sapiens, UniProt Q12809); conditions: cited from earlier work
Chain of hERG (Q12809 whole entry): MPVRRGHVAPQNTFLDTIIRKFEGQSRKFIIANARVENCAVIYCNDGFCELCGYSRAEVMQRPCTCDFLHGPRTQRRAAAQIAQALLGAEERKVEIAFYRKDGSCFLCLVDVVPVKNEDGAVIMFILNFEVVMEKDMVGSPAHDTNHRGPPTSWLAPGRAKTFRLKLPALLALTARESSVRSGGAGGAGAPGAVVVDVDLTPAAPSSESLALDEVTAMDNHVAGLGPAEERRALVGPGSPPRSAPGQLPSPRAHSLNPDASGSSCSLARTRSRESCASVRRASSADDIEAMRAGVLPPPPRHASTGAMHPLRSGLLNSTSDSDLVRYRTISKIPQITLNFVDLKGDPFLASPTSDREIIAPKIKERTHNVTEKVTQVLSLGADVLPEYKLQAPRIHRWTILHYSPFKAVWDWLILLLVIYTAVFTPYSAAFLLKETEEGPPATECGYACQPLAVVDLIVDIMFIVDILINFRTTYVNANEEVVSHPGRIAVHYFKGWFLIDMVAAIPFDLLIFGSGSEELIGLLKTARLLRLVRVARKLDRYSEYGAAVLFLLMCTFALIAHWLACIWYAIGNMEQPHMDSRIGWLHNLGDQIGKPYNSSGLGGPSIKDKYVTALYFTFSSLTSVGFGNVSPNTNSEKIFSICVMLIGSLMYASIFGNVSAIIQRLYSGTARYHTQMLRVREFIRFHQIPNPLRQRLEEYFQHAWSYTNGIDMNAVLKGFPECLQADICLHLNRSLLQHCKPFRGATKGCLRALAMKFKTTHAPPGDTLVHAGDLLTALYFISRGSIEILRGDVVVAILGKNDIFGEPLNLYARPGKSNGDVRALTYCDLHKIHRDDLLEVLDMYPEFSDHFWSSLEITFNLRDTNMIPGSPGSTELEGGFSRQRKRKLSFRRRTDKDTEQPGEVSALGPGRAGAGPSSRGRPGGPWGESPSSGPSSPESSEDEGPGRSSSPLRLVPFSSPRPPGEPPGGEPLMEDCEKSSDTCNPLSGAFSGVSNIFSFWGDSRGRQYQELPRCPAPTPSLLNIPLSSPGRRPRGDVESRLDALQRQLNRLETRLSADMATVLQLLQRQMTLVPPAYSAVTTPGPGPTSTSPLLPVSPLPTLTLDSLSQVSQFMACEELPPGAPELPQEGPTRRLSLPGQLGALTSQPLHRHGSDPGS

Aurora C = target: T2, Aurora C (Homo sapiens, UniProt Q9UQB9); conditions: cited from earlier work
T2 sequence (Q9UQB9 1-309): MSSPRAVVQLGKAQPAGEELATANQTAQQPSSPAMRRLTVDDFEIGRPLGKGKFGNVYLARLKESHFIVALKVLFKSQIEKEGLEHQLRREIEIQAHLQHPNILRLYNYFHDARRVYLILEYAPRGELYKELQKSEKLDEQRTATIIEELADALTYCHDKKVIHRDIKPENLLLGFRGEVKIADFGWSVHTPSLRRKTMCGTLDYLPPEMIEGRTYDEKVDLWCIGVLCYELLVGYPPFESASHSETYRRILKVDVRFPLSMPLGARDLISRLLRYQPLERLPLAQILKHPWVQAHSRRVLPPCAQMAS

FLT3 = target: T3, FLT3 (Homo sapiens, UniProt P36888); conditions: cited from earlier work
T3 sequence (P36888 27-993): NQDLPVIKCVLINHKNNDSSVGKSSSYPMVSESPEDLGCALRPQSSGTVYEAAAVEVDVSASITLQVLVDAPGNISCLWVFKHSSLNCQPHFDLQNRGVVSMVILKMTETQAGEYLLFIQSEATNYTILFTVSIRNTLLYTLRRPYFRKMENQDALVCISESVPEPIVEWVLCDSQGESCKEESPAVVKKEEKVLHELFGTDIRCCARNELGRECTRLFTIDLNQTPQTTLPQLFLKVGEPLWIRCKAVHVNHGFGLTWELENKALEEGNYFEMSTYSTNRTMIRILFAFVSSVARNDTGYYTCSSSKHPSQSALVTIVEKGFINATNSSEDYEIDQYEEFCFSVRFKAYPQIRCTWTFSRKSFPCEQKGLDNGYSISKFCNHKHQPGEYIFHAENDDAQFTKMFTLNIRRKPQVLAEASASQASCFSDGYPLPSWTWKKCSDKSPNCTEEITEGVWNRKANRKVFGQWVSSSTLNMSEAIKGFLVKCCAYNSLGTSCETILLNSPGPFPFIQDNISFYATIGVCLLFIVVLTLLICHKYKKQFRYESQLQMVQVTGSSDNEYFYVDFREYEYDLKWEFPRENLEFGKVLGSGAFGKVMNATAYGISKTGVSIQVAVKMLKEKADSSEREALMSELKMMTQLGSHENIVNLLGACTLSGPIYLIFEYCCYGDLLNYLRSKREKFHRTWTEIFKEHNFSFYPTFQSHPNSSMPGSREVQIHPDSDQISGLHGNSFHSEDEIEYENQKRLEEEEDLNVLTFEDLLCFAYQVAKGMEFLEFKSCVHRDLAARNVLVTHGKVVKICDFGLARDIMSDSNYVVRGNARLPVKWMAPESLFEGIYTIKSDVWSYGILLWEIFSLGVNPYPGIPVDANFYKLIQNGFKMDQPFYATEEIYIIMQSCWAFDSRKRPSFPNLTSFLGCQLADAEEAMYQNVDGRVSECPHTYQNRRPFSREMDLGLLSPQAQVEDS

Aurora B = Aurora B (Homo sapiens, UniProt Q96GD4); conditions: cited from earlier work
Chain of Aurora B (Q96GD4 whole entry): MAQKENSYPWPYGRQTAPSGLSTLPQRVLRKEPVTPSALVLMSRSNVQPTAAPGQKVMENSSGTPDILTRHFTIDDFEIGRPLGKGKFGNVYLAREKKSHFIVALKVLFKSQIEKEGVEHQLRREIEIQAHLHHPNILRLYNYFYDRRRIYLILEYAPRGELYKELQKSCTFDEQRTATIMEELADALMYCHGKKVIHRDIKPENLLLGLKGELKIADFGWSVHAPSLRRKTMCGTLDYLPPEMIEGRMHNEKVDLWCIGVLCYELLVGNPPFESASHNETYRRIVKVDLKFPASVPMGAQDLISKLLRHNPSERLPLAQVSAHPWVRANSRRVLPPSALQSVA

Which “Concentration (thermodynamic solubility)” value ([1]; FaSSGF pH 1.6) does the source give for Cc1nn(C)cc1-c1nc2c(N3CCN(Cc4ccc(Cl)cc4)CC3)c(Cl)cnc2[nH]1 [Compound A, 6-chloro-7-(4-(4-chlorobenzyl)piperazin-1-yl)-2-(1,3-dimethyl-1H-pyrazol-4-yl)-3H-imidazo[4,5-b]pyridine] here?
The value was 1500 µg/mL.

What about the “Concentration (thermodynamic solubility)” value ([1]; FaSSIF pH 6.5) of the same molecule?
Its value is <100 µg/mL.

And the “Concentration (thermodynamic solubility)” value ([1]; FeSSIF pH 5.0)?
The value was <100 µg/mL.

And the “interaction with cytochrome P450 activity” value (cytochrome P450)?
Its value is “minimal interaction”.

And the “activity against Aurora A kinase” value (Aurora A)?
The value was “high activity”.

What about the “interaction with hERG” value (hERG) of the same molecule?
The value was “minimal interaction”.

What about the “activity against Aurora C kinase” value (Aurora C) of the same molecule?
The value was “high activity”.

And the “activity against FLT3 kinase” value (FLT3)?
Its value is “high activity”.

What about the “activity against Aurora B kinase” value (Aurora B) of the same molecule?
Its value is “high activity”.
